Like-named read-outs stand apart in the source and are kept apart here. Values belong to the compound of their own block, whether it stands above or below them.
Test: Shelf stability test (accelerating test at 80° C.)
Format: physicochemical
Experimental: A shelf stability test of glabrene, glabridin, glabrol and 4′-O-methylglabridin in the above MCT solution was carried out as an accelerating test at 80° C. The MCT solution was kept at 80° C. in a water bath, and the contents of glabrene, glabridin, glabrol and 4′-O-methylglabridin were determined after storage for 1, 3 and 5 hours respectively. The shelf stability was expressed in terms of the ratio of the content after storage to the content before storage, assuming that the content of each compound before storage was 100%.
A shelf stability test of the hydrophobic licorice extract in Comparative Example 1 was carried out in an analogous manner.
A shelf stability test of the ethanol solution in Comparative Example 2 was carried out in an analogous manner.

- Shelf stability (ratio of content after storage to content before storage) (0 h): 100%
SMILES: CC1(C)C=Cc2c(O)ccc(C3=Cc4ccc(O)cc4OC3)c2O1 [Compound 1, glabrene]

- Shelf stability (ratio of content after storage to content before storage) (Ethanol solution (Comparative Example 2), 80° C., after 1 hour): 96%
- Shelf stability (ratio of content after storage to content before storage) (Ethanol solution (Comparative Example 2), 80° C., after 3 hour): 94%
- Shelf stability (ratio of content after storage to content before storage) (Ethanol solution (Comparative Example 2), 80° C., after 5 hour): 93%
- Shelf stability (ratio of content after storage to content before storage) (Ethanol solution (Comparative Example 2), 80° C., at the time of start (set to 100%)): 100%
- Shelf stability (ratio of content after storage to content before storage) (Hydrophobic licorice extract (Comparative Example 1), 80° C., after 1 hour): 91%
- Shelf stability (ratio of content after storage to content before storage) (Hydrophobic licorice extract (Comparative Example 1), 80° C., after 3 hours): 88%
- Shelf stability (ratio of content after storage to content before storage) (Hydrophobic licorice extract (Comparative Example 1), 80° C., after 5 hours): 86%
- Shelf stability (ratio of content after storage to content before storage) (Hydrophobic licorice extract (Comparative Example 1), 80° C., at the time of start (set to 100%)): 100%
- Shelf stability (ratio of content after storage to content before storage) (MCT solution (Example 1), 80° C., after 1 hour): 100%
- Shelf stability (ratio of content after storage to content before storage) (MCT solution (Example 1), 80° C., after 3 hours): 101%
- Shelf stability (ratio of content after storage to content before storage) (MCT solution (Example 1), 80° C., after 5 hours): 97%
- Shelf stability (ratio of content after storage to content before storage) (MCT solution (Example 1), 80° C., at the time of start (set to 100%)): 100%
- Stability during storage (in words) (in the ethanol solution, 80° C.): unstable
- Stability during storage (in words) (in the hydrophobic licorice extract, 80° C.): unstable
SMILES: CC1(C)C=Cc2c(ccc3c2OC[C@@H](c2ccc(O)cc2O)C3)O1 [Compound 2, glabridin]

- Stability during storage (in words): stable
- Shelf stability (ratio of content after storage to content before storage) (0 h): 100%
SMILES: CC(C)=CCc1cc([C@@H]2CC(=O)c3ccc(O)c(CC=C(C)C)c3O2)ccc1O [Compound 3, glabrol]

- Shelf stability (ratio of content after storage to content before storage): 100%
- Stability during storage (in words): stable
SMILES: COc1ccc([C@@H]2COc3c(ccc4c3C=CC(C)(C)O4)C2)c(O)c1 [Compound 4, 4′-O-methylglabridin]

Source: patent publication US20070098761A1, “Processed fat composition for preventing/ameliorating lifestyle-related diseases” (priority 2003, published 2007)
